{"source": "patent US4104397A", "about": "“Spiro (1,3-dioxolane-4,3') quinuclidine compounds” (The Purdue Frederick Company, priority 1975, dated 1978)", "key": {"[1]": {"assay": "Biological activity of the cis-isomer", "conditions": "in words, cis/trans comparison"}, "mice [2]": {"system": "mice", "conditions": "Chiang & Leaders, 1971; cited from earlier work"}, "mice [3]": {"system": "mice", "assay": "Induced tremors in mice, Table 1", "format": "in vivo", "conditions": "Mus musculus, ip, read-out: Induced tremors ED50 (ip)", "source_text": "(§1) cat mice cat Guinea pig ileum\n(§2) *with 95% confidence limits (Litchfield et al, 1949)"}, "[4]": {"assay": "Acute toxicity in mice, Table 2", "conditions": "mouse, in vivo", "source_text": "(§3) *with 95% confidence limits, Litchfield & Wilcoxon, (1949)."}, "mice [5]": {"system": "mice", "assay": "Salivation (sialigenic activity) in mice, Table 2", "format": "in vivo", "conditions": "Mus musculus, ip, read-out: Salivation ED50 (ip)", "source_text": "(§4) Acute Toxicity, tremorigenic and sialigenic\nas §3\n**Chiang & Leaders, 1971"}, "mice [6]": {"system": "mice", "assay": "Tremors (tremorigenic activity) in mice, Table 2", "format": "in vivo", "conditions": "Mus musculus, ip, read-out: Tremors ED50 (ip)", "source_text": "as §4, §3"}, "blood pressure": {"system": "blood pressure", "assay": "Fall in blood pressure in vivo, Table 1", "set-up": "species or system cat", "conditions": "iv; for ED50: Felis catus, read-out: Fall blood pressure ED50 (iv); for Fall blood pressure EPMR: equipotent molar ratio relative to ACh", "source_text": "as §1, §2\n(§5) **EPMR: equipotent molar ratio relative to ACh. nmole: nannomoles"}, "Guinea pig ileum": {"system": "Guinea pig ileum", "assay": "Guinea pig ileum induced contraction in vitro, Table 1", "format": "cell-based", "conditions": "equipotent molar ratio relative to ACh", "source_text": "as §1\n(iv) induced contraction\nas §5"}, "[7]": {"system": "Oxotromorine induced tremors", "assay": "Antagonism to oxotremorine induced tremors", "format": "in vivo, Mice", "conditions": "Mus musculus, sc", "experimental": "(§6) *With 95% confidence limits (Litchfield and Wilcoxon, 1949).\n(§7) ^+ R1 =R2 =.PHI.,HCl is injected 20 min. prior to […]"}, "SCG": {"system": "SCG", "assay": "SCG (cat), antagonism to McN-A-343 induced contraction of NM", "format": "in vivo", "source_text": "|induced contraction of NM"}, "[8]": {"system": "Oxotromorine induced salivation", "assay": "Antagonism to oxotremorine induced salivation", "format": "in vivo, Mice", "conditions": "Mus musculus, sc", "experimental": "as §6\n**Oxotromorine, 170 μg/kg, ip (1.15 ED50) induced salivation.\nas §7"}, "[9]": {"system": "enzyme which desactivates acetylcholine", "assay": "Stability to the enzyme which desactivates acetylcholine", "format": "in vitro ADME", "conditions": "in words"}, "[10]": {"system": "autonomic ganglionic and central muscarinic receptors", "assay": "Cholinergic stimulant activity and specificity", "conditions": "in words"}, "Anticholinergic activity": {"assay": "Anticholinergic activity", "conditions": "in words"}, "[11]": {"system": "Oxotromorine induced tremors and salivation", "assay": "CNS/PNS activity (ED50 blockade of tremors / ED50 blockade of salivation)", "format": "in vivo, Mice", "conditions": "ED50 for blockade of tremors divided by ED50 for blockade of salivation; 95% confidence limits", "source_text": "as §6"}, "[12]": {"system": "Physostigmine induced lethality", "assay": "Antagonism to physostigmine induced lethality", "format": "in vivo, Mice", "conditions": "Mus musculus, sc", "source_text": "as §6"}, "Guinea-pig ileum": {"biological_target": "T1, Guinea-pig ileum (Cavia porcellus, UniProt H0W1Z3)", "T1 construct": "Guinea-pig ileum, log Ki; from tissue; host or cells: guinea-pig ileum", "T1 sequence (H0W1Z3 1-590)": "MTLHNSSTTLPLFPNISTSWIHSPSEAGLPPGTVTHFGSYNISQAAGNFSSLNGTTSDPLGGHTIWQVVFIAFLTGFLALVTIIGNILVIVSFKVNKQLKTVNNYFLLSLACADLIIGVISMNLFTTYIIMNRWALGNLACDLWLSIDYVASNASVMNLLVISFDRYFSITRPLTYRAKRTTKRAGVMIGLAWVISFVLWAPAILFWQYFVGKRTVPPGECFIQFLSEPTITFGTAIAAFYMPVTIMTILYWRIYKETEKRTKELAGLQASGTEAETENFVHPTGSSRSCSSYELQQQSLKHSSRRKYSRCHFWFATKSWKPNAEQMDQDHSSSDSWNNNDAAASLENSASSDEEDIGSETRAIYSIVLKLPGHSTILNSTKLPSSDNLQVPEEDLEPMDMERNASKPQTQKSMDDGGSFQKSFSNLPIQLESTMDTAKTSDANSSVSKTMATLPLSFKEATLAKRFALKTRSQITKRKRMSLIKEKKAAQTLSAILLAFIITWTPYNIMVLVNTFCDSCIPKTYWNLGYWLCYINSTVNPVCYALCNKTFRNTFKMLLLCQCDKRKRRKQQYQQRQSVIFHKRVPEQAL", "assay": "Antagonism in guinea-pig ileum (log Ki), Table 3", "format": "cell-based", "conditions": "printed as log Ki (negative)"}, "LD50 in mice, Table 3": {"assay": "LD50 in mice, Table 3", "conditions": "mouse, in vivo, sc"}, "mydriatic activity": {"system": "mydriatic activity", "assay": "Relative mydriatic activity, Table 3", "format": "in vivo", "conditions": "atropine sulphate = 1"}}, "note": "“And” between values parts separate entries of the source, which are not always exact repeats. Equal values may be shown once. Where a name gives a salt, the structure may show the parent alone. Read-outs that look alike come from different tables or passages of the source."}
{"smiles": "CC1OCC2(CN3CCC2CC3)O1", "note": "(single isomer, unassigned; isomer 2) [cis-isomer, 2-methyl spiro (1,3-dioxolane-4,3') quinuclidine]", "values": [{"measurement": "biological activity of the cis-isomer", "setting": "[1]", "result": "greater biological activity"}]}
{"smiles": "CC(=O)OC1CN2CCC1CC2", "note": "(stereo not drawn) [3-Acetoxyquinuclidine]", "values": [{"measurement": "Salivation ED50 (ip)", "setting": "mice [2]", "result": 2.9, "unit": "mg/kg"}, {"measurement": "ED50", "setting": "mice [3]", "result": "7.5 mg/kg and 36.5 µmol/kg"}, {"measurement": "LD50", "setting": "[4]; sc", "result": 112, "unit": "mg/kg"}, {"measurement": "ED50", "setting": "mice [5]", "result": "1.8 mg/kg and 8.8 µmol/kg"}, {"measurement": "ED50", "setting": "mice [6]", "result": "7.5 mg/kg and 36.5 µmol/kg"}, {"measurement": "ED50", "setting": "blood pressure", "result": "0.0002 mg/kg and 0.001 µmol/kg"}, {"measurement": "Fall blood pressure EPMR", "setting": "blood pressure; cat", "result": 6.25}, {"measurement": "Guinea pig ileum induced contraction EPMR", "setting": "Guinea pig ileum", "result": 14}]}
{"smiles": "CC(=O)OC(C)C[N+](C)(C)C", "note": "(stereo not drawn) [Acetyl-β-methyl choline]", "values": [{"measurement": "Guinea pig ileum induced contraction EPMR", "setting": "Guinea pig ileum", "result": 3.6}]}
{"smiles": "CC(=O)OCC[N+](C)(C)C", "note": "[Acetylcholine]", "values": [{"measurement": "ED50", "setting": "blood pressure; cat", "result": 0.00016, "unit": "µmol/kg"}]}
{"smiles": "CN1[C@@H]2CC[C@H]1CC(OC(=O)C(CO)c1ccccc1)C2", "note": "(stereo partly drawn) [Atropine Sulphate, reference compound]", "values": [{"measurement": "ED50", "setting": "[7]", "result": 1, "unit": "µmol/kg"}, {"measurement": "antagonism to McN-A-343 induced contraction of NM ED50 (ia)", "setting": "SCG", "result": 1.4, "unit": "µmol"}, {"measurement": "ED50", "setting": "[8]", "result": 0.039, "unit": "µmol/kg"}]}
{"smiles": "CC1OCC2(CN3CCC2CC3)O1", "note": "(stereo not drawn) [Example 1, 2-Methyl spiro (1,3-dioxolane-4,3')Quinuclidine]", "values": [{"measurement": "destruction by the enzyme which desactivates acetylcholine", "setting": "[9]", "result": "not destroyed by the enzyme which desactivates acetylcholine"}, {"measurement": "cholinergic stimulant activity", "setting": "[10]", "result": "specific and powerful cholinergic stimulant"}, {"measurement": "specificity towards autonomic ganglionic and central muscarinic receptors", "setting": "[10]", "result": "high degree of specificity"}]}
{"smiles": "c1ccc(C2(c3ccccc3)OCC3(CN4CCC3CC4)O2)cc1", "note": "(stereo not drawn) [Example 3, 2,2-diphenyl spiro (1,3-dioxolane-4,3')quinuclidine]", "values": [{"measurement": "anticholinergic activity", "setting": "Anticholinergic activity", "result": "powerful anticholinergic agent"}]}
{"smiles": "CC1OCC2(CN3CCC2CC3)O1", "note": "(stereo not drawn) [I,R1 =H,R2 =-CH3.HCl, 2-methyl spiro (1,3-dioxolane-4,3') quinuclidine]", "values": [{"measurement": "ED50", "setting": "mice [3]; mice", "result": "4.5 mg/kg and 20.5 µmol/kg"}, {"measurement": "LD50", "setting": "[4]; sc", "result": 220, "unit": "mg/kg"}, {"measurement": "ED50", "setting": "mice [5]; mice", "result": "3 mg/kg and 13.7 µmol/kg"}, {"measurement": "ED50", "setting": "mice [6]; mice", "result": "4.5 mg/kg and 20.5 µmol/kg"}, {"measurement": "ED50", "setting": "blood pressure; cat", "result": "0.0066 mg/kg and 0.0301 µmol/kg"}, {"measurement": "Fall blood pressure EPMR", "setting": "blood pressure; cat", "result": 188}, {"measurement": "Guinea pig ileum induced contraction EPMR", "setting": "Guinea pig ileum", "result": 240}]}
{"smiles": "c1ccc(C2(c3ccccc3)OCC3(CN4CCC3CC4)O2)cc1", "note": "(stereo not drawn) [I,R1 =R2 =phenyl,HCl, 2,2-diphenyl spiro (1,3-dioxolane-4,3')quinuclidine]", "values": [{"measurement": "CNS/PNS activity", "setting": "[11]", "result": "1.1(0.77-1.56)"}, {"measurement": "ED50", "setting": "[7]", "result": 0.31, "unit": "µmol/kg"}, {"measurement": "ED50", "setting": "[12]", "result": 0.2, "unit": "µmol/kg"}, {"measurement": "antagonism to McN-A-343 induced contraction of NM ED50 (ia)", "setting": "SCG", "result": 0.5, "unit": "µmol"}, {"measurement": "Ki", "setting": "Guinea-pig ileum", "result": 0.251, "unit": "nM"}, {"measurement": "LD50", "setting": "LD50 in mice, Table 3", "result": 40, "unit": "mg/kg"}, {"measurement": "ED50", "setting": "[8]", "result": 0.28, "unit": "µmol/kg"}, {"measurement": "Relative mydriatic activity", "setting": "mydriatic activity", "result": 1.5}]}
{"smiles": "O=C1CCCN1CC#CCN1CCCC1", "note": "[Oxotremorine]", "values": [{"measurement": "LD50", "setting": "[4]; ip", "result": 5, "unit": "mg/kg"}, {"measurement": "ED50", "setting": "mice [5]; mice", "result": "0.12 mg/kg and 0.63 µmol/kg"}, {"measurement": "ED50", "setting": "mice [6]; mice", "result": "0.14 mg/kg and 0.73 µmol/kg"}]}
